The source made the active and inactive calls.
What was measured:
BJ [1] = assay: cells; type: functional, cell-based; settings: Homo sapiens
BJ [2] = assay: cytotoxicity toward BJ-TERT fibroblasts, dose response, cell-based, RAS-independent, luminescence (AID 1933); type: functional; settings: Homo sapiens
[3] = cytotoxicity toward DRD oncogenic fibroblasts, dose response, cell-based, non-viral oncogenic, luminescence (AID 1934); type: functional; settings: Homo sapiens
[4] = target: Luciferin 4-monooxygenase (Photinus pyralis, UniProt P08659); assay: firefly luciferase enzyme inhibitors, dose response, biochemical, luminescence (AID 1891)
Luciferin 4-monooxygenase, sequence (P08659 whole entry): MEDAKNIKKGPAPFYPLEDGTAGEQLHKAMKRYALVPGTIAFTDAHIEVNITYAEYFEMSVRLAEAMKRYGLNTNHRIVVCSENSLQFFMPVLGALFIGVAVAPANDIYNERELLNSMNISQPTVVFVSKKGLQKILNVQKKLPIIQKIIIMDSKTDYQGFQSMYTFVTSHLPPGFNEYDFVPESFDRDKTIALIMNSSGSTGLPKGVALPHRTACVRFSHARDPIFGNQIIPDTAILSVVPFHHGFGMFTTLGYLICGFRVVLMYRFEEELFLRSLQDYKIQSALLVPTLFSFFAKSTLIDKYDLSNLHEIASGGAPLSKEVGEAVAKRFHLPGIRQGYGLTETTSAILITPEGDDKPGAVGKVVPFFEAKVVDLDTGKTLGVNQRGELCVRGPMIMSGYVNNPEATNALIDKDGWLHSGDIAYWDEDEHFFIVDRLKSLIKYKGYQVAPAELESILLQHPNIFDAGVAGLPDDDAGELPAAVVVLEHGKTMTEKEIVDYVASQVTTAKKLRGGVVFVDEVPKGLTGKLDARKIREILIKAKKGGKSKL

[5] = Luminescence Cell-Based Dose Confirmation HTS to Identify Inhibitors of Platelet Dense Granule Release. [Related pubchem assays: 1663 (Primary HTS), 1678 (Summary of Project)]; type: functional
BJ [6] = assay: cytotoxicity toward BJ-TERT-LT-ST fibroblasts, dose response, cell-based, RAS-independent, luminescence (AID 1935); type: functional; settings: Homo sapiens;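 further: BJ fibroblasts immortalized with TERT plus LT and ST oncogenes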
Caspase-6 = target: T1, Caspase-6 (Homo sapiens, UniProt P55212); assay: human caspase-6 inhibitors, dose response, biochemical, VEID-R110 fluorescence, cherry-pick (AID 720632)
T1 sequence (P55212 whole entry): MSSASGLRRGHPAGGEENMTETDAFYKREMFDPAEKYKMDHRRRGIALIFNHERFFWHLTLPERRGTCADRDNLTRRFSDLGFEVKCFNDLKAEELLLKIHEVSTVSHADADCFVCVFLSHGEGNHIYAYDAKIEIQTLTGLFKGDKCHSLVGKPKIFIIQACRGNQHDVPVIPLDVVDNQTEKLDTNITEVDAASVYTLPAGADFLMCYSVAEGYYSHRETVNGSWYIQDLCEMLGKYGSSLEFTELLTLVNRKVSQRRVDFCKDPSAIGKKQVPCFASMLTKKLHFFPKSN

[7] = HEp-2 cell cytotoxicity, dose response, cytotoxicity control for RSV inhibitor project, HTS (AID 2410); type: functional; settings: human respiratory syncytial virus
Large T antigen = Large T antigen (Simian virus 40, UniProt P03070); type: functional, Betapolyomavirus macacae;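 further: Confirmatory-stage PubChem screen for compounds that inhibit SV40 T antigen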
Large T antigen, sequence (P03070 whole entry): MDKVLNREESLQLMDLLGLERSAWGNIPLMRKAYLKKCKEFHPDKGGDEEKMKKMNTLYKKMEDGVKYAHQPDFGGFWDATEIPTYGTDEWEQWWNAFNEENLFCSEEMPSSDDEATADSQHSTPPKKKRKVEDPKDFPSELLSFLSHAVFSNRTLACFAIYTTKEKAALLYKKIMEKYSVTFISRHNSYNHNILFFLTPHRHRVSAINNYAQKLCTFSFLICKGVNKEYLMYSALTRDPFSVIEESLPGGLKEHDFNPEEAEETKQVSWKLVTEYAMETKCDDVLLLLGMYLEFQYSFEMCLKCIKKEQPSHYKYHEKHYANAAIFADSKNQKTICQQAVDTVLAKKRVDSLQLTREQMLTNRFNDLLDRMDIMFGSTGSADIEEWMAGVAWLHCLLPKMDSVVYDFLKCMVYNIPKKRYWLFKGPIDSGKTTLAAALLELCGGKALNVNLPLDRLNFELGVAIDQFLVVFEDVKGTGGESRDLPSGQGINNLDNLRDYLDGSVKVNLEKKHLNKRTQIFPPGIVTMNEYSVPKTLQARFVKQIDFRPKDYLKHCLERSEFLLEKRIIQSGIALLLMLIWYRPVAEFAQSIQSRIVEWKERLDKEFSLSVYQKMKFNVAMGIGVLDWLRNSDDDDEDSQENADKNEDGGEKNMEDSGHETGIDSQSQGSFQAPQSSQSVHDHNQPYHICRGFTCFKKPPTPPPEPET

[8] = target: Heat shock protein HSP 90-alpha (Homo sapiens, UniProt P07900); type: functional, organism-based
[9] = LGR2 antagonists, dose response, cell-based, HEK293, CRE-luciferase reporter, cherry pick, set 2 (AID 743343); type: functional;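 further: transfected cells were stimulated with diluted bursicon conditioned medium after compound addition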
[10] = MC4R antagonists, dose response, counter-screen for LGR2 antagonist project, cell-based, plate reader, cherry pick (AID 743444); type: functional;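 further: transfected HEK 293 cells stimulated with alpha-MSH peptide; potency of inhibitors of the alpha-MSH evoked signal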
[11] = HEK293 cell cytotoxicity, dose response, cytotoxicity control, plate reader, cherry-picked samples (AID 743446); type: functional, cell-based
[12] = A549 cell cytotoxicity, dose response, cytotoxicity control, plate reader, cherry-pick, antagonist series (AID 743412); type: functional, cell-based
Trypsin = Trypsin (Sus scrofa, UniProt P00761); assay: porcine trypsin inhibitors, dose response, selectivity assay for Rce1 protease inhibitor project, biochemical, quenched peptide fluorescence, cherry-pick (AID 488789)
Trypsin, sequence (P00761 whole entry): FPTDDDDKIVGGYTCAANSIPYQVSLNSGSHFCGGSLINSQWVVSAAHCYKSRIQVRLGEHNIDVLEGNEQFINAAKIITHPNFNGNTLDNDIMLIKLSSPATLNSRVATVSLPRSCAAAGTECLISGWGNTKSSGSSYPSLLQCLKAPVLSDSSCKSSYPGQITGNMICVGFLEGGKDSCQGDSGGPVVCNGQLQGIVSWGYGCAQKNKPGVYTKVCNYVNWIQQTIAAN

With Cn1c(N=Nc2ccccc2)nc2ccccc21 the EC50 (BJ [1]) was 4.78 µM (inconclusive), the EC50 (BJ [2]) was 6.48 µM (active) and the EC50 [3] was 6.84 µM (inconclusive). For the same compound, the EC50 [4] was 1.5 µM (active), the EC50 [5] was 1.78 µM (active) and the EC50 (BJ [6]) was 9.38 µM (active). The AC50 (Caspase-6) was 38.1 µM (active).

For CCOc1ccc(NC(=NCc2ccc3c(c2)OCO3)SC2CC(=O)N(c3ccc(C(=O)O)cc3)C2=O)cc1 (centres undefined), the CC50 [7] was 22.8 µM (active) and the IC50 (cells) was 15.6 µM (active).

In the case of CC(=N)/C(C#N)=C(/O)COC(=O)c1ccncc1, the IC50 (cells) is reported as 1.14 µM (active).

With O=S(=O)(Nc1ccc(O)cc1)c1cccc2cccnc12 the IC50 (Large T antigen) was 7.36 µM (active).

In the case of COc1ccccc1-c1sc2cc3c(cc2c1-c1ccc(O)cc1)OCO3, the AC50 [8] is reported as 8.22 µM (active).

For COCC(=O)N1CCCCN2[C@H](CO)[C@H](c3ccc(-c4cccc(C)c4)cc3)[C@@H]2C1, the AC50 [9] was 18 µM (active), the AC50 [10] was 23.6 µM (active) and the AC50 [11] was > 52 µM (inactive). For the same compound, the AC50 [12] was > 52 µM (inactive).

For CCn1c(=O)c2cc(C(=O)N(C)c3cc(C)ccc3OC)sc2c2ccccc21, the CC50 [7] was 21.2 µM (active) and the IC50 (cells) was 21.5 µM (active).

In the case of O=C(Nc1ccccc1)n1ccc(-c2ccc(-n3ccnc3)cc2)n1, the AC50 (Trypsin) is reported as 17.9 µM (active).

— ChEMBL document CHEMBL1201862, “PubChem BioAssay data set” (2004)
